Data: patent US5563176A (priority 1994, dated 1996)
≈ marks a conversion by molar mass, not a printed value. Where “and” joins values, the source holds several entries; their conditions need not be identical. Identical values can stand only once. Like-named read-outs stand apart in the source and are kept apart here.

What was measured:
HL-60 cells = assay: cells; type: cell-based, human; conditions: Homo sapiens, HL-60
Dunning leukemia = conditions: NCI DCT; cited from earlier work
[1] = kinetics of the reaction with dilute HCl; type: physicochemical; conditions: illudin M
Text: Consistent with the above hypothesis are the results of the kinetics of the reaction of illudin M and dehydroilludin M with dilute HCl. […] In the reaction with dehydroilludin M, no intermediate could be detected by NMR spectroscopy. Presumably it formed too slowly and is too short-lived to be detected.

[2] = system: human lung adenocarcinoma MV522; conditions: in vivo
MV522 = assay: cells; type: cell-based; conditions: Homo sapiens, MV522, 48 h, read-out: 48 hour IC50
[3] = system: MX-1 mammary carcinoma xenograft; assay: MX-1 human breast tumor xenograft in nude mice; type: in vivo
Text: (§1) Nude mice are implanted subcutaneously (s.c.) by trocar with fragments of MX-1 mammary carcinomas harvested from s.c. growing MX-1 tumors in nude mice hosts. When tumors are approximately 5 mm×5 mm in size (usually about ten days after inoculation), the animals are pair-matched into treatment and control groups. Each group contains 10 tumored mice, each of which is eartagged and followed individually throughout the experiment. The administration of drugs or vehicle begins the day the animals are pair-matched (day 1). The doses, route of drug administration and schedule are selected as appropriate for the study in question, If the maximum tolerated dose (MTD) of an agent is not known, it was determined in an initial dosing experiment in non-tumored mice. In a typical experiment, drugs are given at their MTD and 1/2 MTD doses i.p. on a daily×5 schedule.
The experiment is usually terminated when control tumors reach a size of 2-3 g. Mice are weighed twice weekly, and tumor measurements are taken by calipers twice weekly, starting on day 1. These tumor measurements are converted to mg tumor weight by a well-known formula, and from these calculated tumor weights the termination date can be determined. Upon termination, all mice are weighed, sacrificed, and their tumors excised. Tumors, are weighed, and the mean tumor weight per group is calculated. In this model, the mean treated tumor weight/mean control tumor weight×100% (T/C) is subtracted from 100% to give the tumor growth inhibition (TGI) for each group).
Some drugs cause minor shrinkage in the MX-1 model. With these agents, the final weight of a given tumor is subtracted from its own weight at the start of treatment on day 1. This difference divided by the initial tumor weight is the % shrinkage. A mean % tumor shrinkage can be calculated from data from the mice in a group that experienced MX-1 regressions. If the tumor completely disappears in a mouse, this is considered a complete regression or complete tumor shrinkage.
(§2) HMAF was evaluated against the MX-1 mammary carcinoma xenograft at the MTD of 7.5 mg/kg, and also at 5.0 mg/kg, i.p. daily×5, delivered in 10% cremophor, 20% ethanol and 70% isotonic saline. The 7.5 mg mg/kg dose caused no lethality, or unacceptable weight loss to the nude mice (day 8 weight loss=9.5%). […] The 5.0 mg/kg dose produced 2 complete regressions, and an average 88% tumor shrinkage in the other 8 mice.

8392 cells = assay: cells; type: cell-based; conditions: 48 h, read-out: 48 hour IC50
MV522 cells = assay: cells; type: cell-based, human
HT-29 human colon tumor = assay: in vitro activity, HT-29; type: cell-based; conditions: HT-29, HT29
B16 melanoma [4] = assay: B16 melanoma in mice; type: in vivo; conditions: same doses as P388
HL60 cells (myeloid) = assay: cells; type: cell-based, human
B16 melanoma [5] = assay: in vitro activity, B16; type: cell-based
[6] = tolerability in nude mice (MX-1 study); type: in vivo
Text: as §1, §2

HL60 cells = assay: cells; type: cell-based; conditions: Homo sapiens, HL-60, 48 h, read-out: 48 hour IC50
[7] = dosing/tolerability in B6D2F1 mice; type: in vivo
Protocol: (§3) HMAF was also evaluated against P388 leukemia in mice. The tumor inoculum is prepared by removing ascites fluid containing P388 cells from tumored B6D2F1 mice, centrifuging the cells, and then resuspending the leukemia cells in saline. Mice receive 1×10^6 P388 cells i.p. on day 0. Initial dosing experiments on a daily×5 schedule in B6D2F1 mice established the MTD of HMAF as 7.5 mg/kg. HMAF was tested at doses of 7.5 and 5.0 mg/kg vs. the P388 leukemia model. […] A T/C value of 150 means that treated mice lived 50% longer than the controls. Weight loss at the higher dose was 13% on day 8, again confirming that 7.5 mg/kg is the MTD for this agent on the daily×5 schedule.

8392 cells (B-cell) = assay: cells; type: cell-based; conditions: 2 h, read-out: Two hour IC50
P388 leukemia = P388 leukemia in mice; type: in vivo, murine
Protocol: as §3

MCF-7 human breast tumor = assay: in vitro activity, MCF-7; type: cell-based
[8] = system: human lung adenocarcinoma MV522; assay: animal or person; conditions: MV522, ip, read-out: life span
murine P388 cells = assay: in vitro activity, P388; type: cell-based

For `CC1=C2C(=CC(C)(C)C2O)C(=O)[C@](C)(O)C12CC2` (stereo partly shown) [Illudin M, reference compound], the IC50 (HL-60 cells) is listed as 10 nM, the “life span of rats with Dunning leukemia” value (Dunning leukemia) is listed as “significantly increased the life span” and the half-life [1] is listed as 2.47 h. For the same compound, the “k, pseudo first-order reaction” value [1] was 4.7×10^-3.

In the case of `CC1=C(CO)C2=C(C)C3(CC3)[C@@](C)(O)C(=O)C2=C1` [6-hydroxymethylacylfulvene], the “efficacy in this model” value [2] is reported as “markedly increased the life span”, the “life span versus control” value [2] is reported as “lived significantly longer” and the “toxic side effects (activity, weight gain, food or water intake)” value [2] is reported as “no evidence of toxic side effects”. The tumor growth response ([2]; 10 mg/kg) was “Tumor regression”, the animals alive ([2]; ip, 10 mg/kg) was 2 animals alive, ? cured and the life span ([2]; ip, 10 mg/kg) was 233 ± 18% and 232 ± 20% and > 204%. The IC50 (MV522) was 73 ± 8 nM, the complete regressions ([3]; 5.0 mg/kg i.p. daily×5, of 10 mice) was 2 and the average tumor shrinkage ([3]; 5.0 mg/kg i.p. daily×5, other 8 mice) was 88%. For the same compound, the complete tumor regressions ([3]; 7.5 mg/kg i.p. daily×5, of 10 mice) was 4 mice, the average tumor shrinkage ([3]; 7.5 mg/kg i.p. daily×5, other 6 mice) was 91% and the “activity in MX-1 xenograft” value ([3]; in vivo) was “highly active”. For the same compound, the IC50 (8392 cells) was 76 ± 4 nM, the IC50 (MV522 cells; Homo sapiens, MV522, 2 h, read-out: Two hour IC50) was 114 ± 28 nM and the “toxicity to target tumor cells” value (MV522 cells; MV522, 2 and 48 hour) was “markedly toxic”. The IC50 (HT-29 human colon tumor) was 0.05 µg/mL (≈ 0.203 µM), the “activity against B16 melanoma in mice” value (B16 melanoma [4]) was “inactive” and the “toxicity to target tumor cells” value (HL60 cells (myeloid)) was “markedly toxic”. The IC50 (HL60 cells (myeloid); Homo sapiens, HL-60, 2 h, read-out: Two hour IC50) was 150 ± 11 nM, the IC50 (B16 melanoma [5]; B16, listed as HMAF) was 4.65 µg/mL and 3.73 µg/mL and the IC50 (B16 melanoma [5]; Mus musculus, B16, B16, read-out: IC50) was 3.73 to 4.65 µg/mL (≈ 15.1 to 18.9 µM). For the same compound, the lethality ([6]; 7.5 mg/kg i.p. daily×5) was “no lethality”, the weight loss ([6]; 7.5 mg/kg i.p. daily×5, day 8) was 9.5% and the MTD ([6]; mouse, in vivo, ip, i.p. daily×5, nude mice) was 7.5 mg/kg. For the same compound, the IC50 (HL60 cells) was 4 ± 1 nM, the weight loss ([7]; higher dose, day 8, P388 study) was 13% and the MTD ([7]; mouse, in vivo, daily×5, B6D2F1 mice) was 7.5 mg/kg. The IC50 (8392 cells (B-cell)) was 7360 nM, the “treated/control (T/C)” value (P388 leukemia; 5.9 mg/kg) was 137 and the “treated/control (T/C)” value (P388 leukemia; 6.5 mg/kg) was 140. The IC50 (MCF-7 human breast tumor; Homo sapiens, MCF7, MCF-7, read-out: IC50) was 0.036 to 0.07 µg/mL (≈ 0.146 to 0.284 µM), the IC50 (MCF-7 human breast tumor; MCF-7, listed as HMAF) was 0.036 µg/mL and 0.043 µg/mL and the response vs control in vivo at 1 mg/kg [8] was 135 ± 10%. The response vs control in vivo at 5 mg/kg [8] was 154 ± 13%, the IC50 (murine P388 cells; Mus musculus, P388, P388, read-out: IC50) was 0.16 to 0.32 µg/mL (≈ 0.65 to 1.3 µM) and the IC50 (murine P388 cells; P388, listed as HMAF) was 0.165 µg/mL and 0.319 µg/mL.
